Measured values taken from publication PMC6778635 (Cancer Science, 2019).

Biological target: p97/VCP (Homo sapiens, UniProt P55072)
Assay: cell-free ATPase assay on purified recombinant p97/VCP
Type: biochemical

Chain of p97/VCP (P55072 2-806): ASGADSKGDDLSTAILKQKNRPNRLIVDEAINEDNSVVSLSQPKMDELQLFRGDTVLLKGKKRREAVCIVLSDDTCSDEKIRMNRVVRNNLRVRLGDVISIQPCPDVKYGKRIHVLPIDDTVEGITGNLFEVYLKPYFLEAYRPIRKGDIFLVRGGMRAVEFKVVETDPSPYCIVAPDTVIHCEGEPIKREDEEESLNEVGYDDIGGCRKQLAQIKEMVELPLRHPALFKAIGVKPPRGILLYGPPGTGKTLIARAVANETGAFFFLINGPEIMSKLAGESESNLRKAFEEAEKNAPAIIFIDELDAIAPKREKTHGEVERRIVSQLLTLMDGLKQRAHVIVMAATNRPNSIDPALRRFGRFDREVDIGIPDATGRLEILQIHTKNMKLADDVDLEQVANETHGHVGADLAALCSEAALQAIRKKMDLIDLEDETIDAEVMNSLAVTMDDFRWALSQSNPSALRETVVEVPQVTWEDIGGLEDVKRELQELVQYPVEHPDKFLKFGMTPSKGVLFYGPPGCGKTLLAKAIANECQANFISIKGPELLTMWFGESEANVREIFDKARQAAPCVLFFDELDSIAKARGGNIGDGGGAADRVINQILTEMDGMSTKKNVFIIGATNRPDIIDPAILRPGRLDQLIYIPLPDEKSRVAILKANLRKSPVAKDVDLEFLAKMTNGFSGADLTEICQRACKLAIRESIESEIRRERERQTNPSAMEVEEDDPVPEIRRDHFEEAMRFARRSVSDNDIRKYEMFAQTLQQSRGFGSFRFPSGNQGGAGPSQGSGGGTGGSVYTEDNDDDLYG

IC50: 6.99 ± 0.5 µM
SMILES: c1ccc(CNc2nc(NCc3ccccc3)c3ccccc3n2)cc1 [DBeQ]
